Measured values reported in ChEMBL document CHEMBL2021919, “Computational analysis of structure-based interactions and ligand properties can predict efflux effects on antibiotics” (2012).
In brackets after ≈: the same amount, converted by molar mass.

Experiments:
Escherichia coli [1] = assay: Ratio of MIC for wild type Escherichia coli JC7623 to MIC for acrAB-deficient Escherichia coli JZM120; assay type: functional
Salmonella typhimurium = assay: Ratio of MIC for wild type Salmonella typhimurium SH5014 to MIC for Salmonella typhimurium SH7616 harboring missense mutation in acrA/acrB gene by two-fold serial dilution method; assay type: functional, Salmonella enterica subsp. enterica serovar Typhimurium
Escherichia coli [2] = assay: Antimicrobial activity against wild type Escherichia coli expressing AcrAB-TolC efflux pump; assay type: functional
Escherichia coli [3] = assay: Ratio of MIC for wild type Escherichia coli TG1 to MIC for acrB-deficient Escherichia coli KAM3 by two-fold serial dilution method; assay type: functional
Escherichia coli [4] = assay: Ratio of MIC for wild type Escherichia coli ECM1194 to MIC for acrAB-deficient Escherichia coli ECM1694; assay type: functional
Escherichia coli [5] = assay: Ratio of MIC for wild type Escherichia coli HS414 to MIC for acrB-deficient Escherichia coli HS832 by agar dilution method; assay type: functional

SMILES | Ratio (Escherichia coli [1]) | Ratio (Salmonella typhimurium) | MIC (Escherichia coli [2]) [µg/mL] | Ratio (Escherichia coli [3]) | Ratio (Escherichia coli [4]) | Ratio (Escherichia coli [5])
CO/N=C(\C(=O)N[C@@H]1C(=O)N2C(C(=O)[O-])=C(C[N+]3(C)CCCC3)CS[C@H]12)c1csc(N)n1 | 1 | 1 | 0.0075 (≈ 0.0156 µM) | – | – | –
CC1(C)S[C@@H]2[C@H](NC(=O)CCC[C@@H](N)C(=O)O)C(=O)N2[C@H]1C(=O)O [ADICILLIN] | – | 1 | 8 (≈ 22.3 µM) | – | – | –
CC1(C)S[C@@H]2[C@H](/N=C/N3CCCCCC3)C(=O)N2[C@H]1C(=O)O [AMDINOCILLIN] | 2 | – | 0.5 (≈ 1.54 µM) | – | – | –
CC1(C)S[C@@H]2[C@H](NC(=O)[C@H](N)c3ccc(O)cc3)C(=O)N2[C@H]1C(=O)O [AMOXICILLIN] | 1 | – | 4 (≈ 10.9 µM) | – | – | –
CC1(C)S[C@@H]2[C@H](NC(=O)[C@H](NC(=O)N3CCNC3=O)c3ccccc3)C(=O)N2[C@H]1C(=O)O [AZLOCILLIN] | 4 | – | 16 (≈ 34.7 µM) | – | – | –
C[C@H]1[C@H](NC(=O)/C(=N\OC(C)(C)C(=O)O)c2csc(N)n2)C(=O)N1S(=O)(=O)O [AZTREONAM] | – | – | 0.05 (≈ 0.115 µM) | 1 | – | –
CC1(C)S[C@@H]2[C@H](NC(=O)C(C(=O)O)c3ccccc3)C(=O)N2[C@H]1C(=O)O (stereo partly specified) [CARBENICILLIN] | 1 | 4 | 1.56 (≈ 4.12 µM) | 1 | – | –
Cn1nnnc1SCC1=C(C(=O)O)N2C(=O)[C@@H](NC(=O)[C@H](O)c3ccccc3)[C@H]2SC1 [CEFAMANDOLE] | 4 | – | 4 (≈ 8.65 µM) | 4 | – | –
Cc1nnc(SCC2=C(C(=O)O)N3C(=O)[C@@H](NC(=O)Cn4cnnn4)[C@H]3SC2)s1 [CEFAZOLIN] | 1 | 1 | 0.39 (≈ 0.858 µM) | – | – | –
CO[C@@]1(NC(=O)CSCC#N)C(=O)N2C(C(=O)O)=C(CSc3nnnn3C)CS[C@@H]21 [CEFMETAZOLE] | 1 | 1 | 0.05 (≈ 0.106 µM) | 2 | – | –
CCN1CCN(C(=O)N[C@@H](C(=O)N[C@@H]2C(=O)N3C(C(=O)O)=C(CSc4nnnn4C)CS[C@H]23)c2ccc(O)cc2)C(=O)C1=O [CEFOPERAZONE] | 2 | – | 0.03 (≈ 0.0465 µM) | – | – | –
CO/N=C(\C(=O)N[C@@H]1C(=O)N2C(C(=O)O)=C(COC(C)=O)CS[C@H]12)c1csc(N)n1 [CEFOTAXIME] | – | 4 | 0.12 (≈ 0.263 µM) | 2 | – | –
CO[C@@]1(NC(=O)Cc2cccs2)C(=O)N2C(C(=O)O)=C(COC(N)=O)CS[C@@H]21 [CEFOXITIN] | 4 | 4 | 4 (≈ 9.36 µM) | – | – | –
CO/N=C(\C(=O)N[C@@H]1C(=O)N2C(C(=O)[O-])=C(C[n+]3cccc4c3CCC4)CS[C@H]12)c1csc(N)n1 [CEFPIROME] | 1 | – | 0.015 (≈ 0.0291 µM) | – | – | –
NC(=O)c1cc[n+](CC2=C(C(=O)[O-])N3C(=O)[C@@H](NC(=O)[C@@H](c4ccccc4)S(=O)(=O)O)[C@H]3SC2)cc1 [CEFSULODIN] | 1 | 1 | 16 (≈ 30 µM) | – | – | –
CC(C)(O/N=C(\C(=O)N[C@@H]1C(=O)N2C(C(=O)[O-])=C(C[n+]3ccccc3)CS[C@H]12)c1csc(N)n1)C(=O)O [CEFTAZIDIME] | 1 | – | 0.12 (≈ 0.22 µM) | – | – | –
CO/N=C(\C(=O)N[C@@H]1C(=O)N2C(C(=O)O)=C(CSc3nc(=O)c(O)nn3C)CS[C@H]12)c1csc(N)n1 [CEFTRIAXONE] | 1 | 2 | 0.015 (≈ 0.027 µM) | – | – | –
CO/N=C(\C(=O)N[C@@H]1C(=O)N2C(C(=O)O)=C(COC(N)=O)CS[C@H]12)c1ccco1 [CEFUROXIME] | 16 | – | 1.56 (≈ 3.68 µM) | 8 | – | –
O=C(Cc1cccs1)N[C@@H]1C(=O)N2C(C(=O)[O-])=C(C[n+]3ccccc3)CS[C@H]12 [CEPHALORIDINE] | 2 | 2 | 2 (≈ 4.81 µM) | – | – | –
CC(=O)OCC1=C(C(=O)O)N2C(=O)[C@@H](NC(=O)CCC[C@@H](N)C(=O)O)[C@H]2SC1 [CEPHALOSPORIN C] | – | 1 | 16 (≈ 38.5 µM) | – | – | –
CC(=O)OCC1=C(C(=O)O)N2C(=O)[C@@H](NC(=O)Cc3cccs3)[C@H]2SC1 [CEPHALOTHIN] | – | – | 2 (≈ 5.04 µM) | – | – | –

SMILES | Ratio (Escherichia coli [1]) | Ratio (Salmonella typhimurium) | MIC (Escherichia coli [2]) [µg/mL] | Ratio (Escherichia coli [3]) | Ratio (Escherichia coli [4]) | Ratio (Escherichia coli [5])
O=C(N[C@H](CO)[C@H](O)c1ccc([N+](=O)[O-])cc1)C(Cl)Cl [CHLORAMPHENICOL] | – | – | 4 (≈ 12.4 µM) | – | 4 | 8
Cc1onc(-c2ccccc2Cl)c1C(=O)N[C@@H]1C(=O)N2[C@@H]1SC(C)(C)[C@@H]2C(=O)O [CLOXACILLIN] | 128 | 256 | 256 (≈ 587 µM) | 128 | – | –
C[n+]1c2cc(N)ccc2cc2ccc(N)cc21.[Cl-] [EUFLAVINE] | – | – | 400 | – | – | 128
C[C@@H](O)[C@H]1C(=O)N2C(C(=O)O)=C([C@H]3CCCO3)S[C@H]12 [FAROPENEM] | – | – | 0.39 (≈ 1.37 µM) | 4 | – | –
CS(=O)(=O)c1ccc([C@@H](O)[C@@H](CF)NC(=O)C(Cl)Cl)cc1 [FLORFENICOL] | – | – | 6.25 (≈ 17.4 µM) | – | – | 8
CC[n+]1c(-c2ccccc2)c2cc(N)ccc2c2ccc(N)cc21.[Br-] [HOMIDIUM BROMIDE] | – | – | 800 | – | – | 256
CN(Cc1cnc2nc(N)nc(N)c2n1)c1ccc(C(=O)N[C@@H](CCC(=O)O)C(=O)O)cc1 [METHOTREXATE] | – | – | 640 (≈ 1410 µM) | – | – | 8
CC1(C)S[C@@H]2[C@H](NC(=O)[C@H](NC(=O)N3CCN(S(C)(=O)=O)C3=O)c3ccccc3)C(=O)N2[C@H]1C(=O)O [MEZLOCILLIN] | 32 | – | 1 (≈ 1.85 µM) | – | – | –
CO[C@@]1(NC(=O)C(C(=O)[O-])c2ccc(O)cc2)C(=O)N2C(C(=O)[O-])=C(CSc3nnnn3C)CO[C@@H]21.[Na+].[Na+] (stereo partly specified) [MOXALACTAM DISODIUM] | – | 1 | 0.12 | – | – | –
CCOc1ccc2ccccc2c1C(=O)N[C@@H]1C(=O)N2[C@@H]1SC(C)(C)[C@@H]2C(=O)O [NAFCILLIN] | – | – | 200 (≈ 483 µM) | 128 | – | –
CCn1cc(C(=O)O)c(=O)c2ccc(C)nc21 [NALIDIXIC ACID] | – | – | 3.12 (≈ 13.5 µM) | – | – | 2
CCn1cc(C(=O)O)c(=O)c2cc(F)c(N3CCNCC3)cc21 [NORFLOXACIN] | – | – | 0.004 (≈ 0.0125 µM) | – | – | 1
CO[C@@H]1[C@@H](OC(N)=O)[C@@H](O)[C@H](Oc2ccc3c(O)c(NC(=O)c4ccc(O)c(CC=C(C)C)c4)c(=O)oc3c2C)OC1(C)C [NOVOBIOCIN] | 32 | – | 32 (≈ 52.2 µM) | 64 | – | 64
Cc1onc(-c2ccccc2)c1C(=O)N[C@@H]1C(=O)N2[C@@H]1SC(C)(C)[C@@H]2C(=O)O [OXACILLIN] | 512 | – | 1020 (≈ 2550 µM) | 256 | – | –
CC1(C)S[C@@H]2[C@H](NC(=O)Cc3ccccc3)C(=O)N2[C@H]1C(=O)O [PENICILLIN G] | 2 | 32 | 8 (≈ 23.9 µM) | – | – | –
CCN1CCN(C(=O)N[C@@H](C(=O)N[C@@H]2C(=O)N3[C@@H]2SC(C)(C)[C@@H]3C(=O)O)c2ccccc2)C(=O)C1=O [PIPERACILLIN] | – | – | 4 (≈ 7.73 µM) | – | – | –
Nc1ccc2cc3ccc(N)cc3nc2c1 [PROFLAVINE] | – | – | 100 (≈ 478 µM) | – | – | 8
CC1(C)S[C@@H]2[C@H](NC(=O)C(c3ccccc3)S(=O)(=O)O)C(=O)N2[C@H]1C(=O)O (stereo partly specified) [SULBENICILLIN] | – | 4 | 8 (≈ 19.3 µM) | 1 | – | –
CC(=O)NS(=O)(=O)c1ccc(N)cc1 [SULFACETAMIDE] | – | – | 2000 (≈ 9340 µM) | – | – | 1
CN(C)[C@@H]1C(O)=C(C(N)=O)C(=O)[C@@]2(O)C(O)=C3C(=O)c4c(O)cccc4[C@@](C)(O)[C@H]3C[C@@H]12 [TETRACYCLINE] | – | – | 1.25 (≈ 2.81 µM) | – | – | 8
